What was measured:
human PRMT1 = biological target: T1, human PRMT1 (Homo sapiens, UniProt Q99873); assay: PRMT1 Biochemical Assay (3H-SAM Flashplate, peptide substrate); conditions: single experiment or average of multiple experiments
T1 construct: GST-tagged PRMT1; made in house; host or cells: High Five insect cells (baculovirus)
In short: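 GST-tagged PRMT1 from baculovirus-infected cells, preincubated with compounds 30 min at room temperature in 20 mM Bicine pH 7.6, 1 mM TCEP, 0.005% BSG, 0.002% Tween 20. Reaction started with ³H-SAM plus biotinylated peptide, stopped with 300 µM cold SAM.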

human PRMT8 = human PRMT8 (Homo sapiens, UniProt Q9NR22); assay: PRMT8 Biochemical Assay (3H-SAM Flashplate, peptide substrate); conditions: single experiment or average of multiple experiments
In short: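 Methylation of a biotin-tagged histone H4 peptide (residues 31-45) by recombinant PRMT8 was measured as 3H transfer from 3H-SAM, after a 30 min room-temperature compound preincubation in Bicine buffer pH 7.6. Reactions were quenched with unlabelled SAM to 400 uM final, then bound counts were read by streptavidin Flashplate. IC50 came from a Hill fit of % inhibition relative to max and SAH min controls.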

T1 sequence (Q99873 with tags, fused parts or gaps): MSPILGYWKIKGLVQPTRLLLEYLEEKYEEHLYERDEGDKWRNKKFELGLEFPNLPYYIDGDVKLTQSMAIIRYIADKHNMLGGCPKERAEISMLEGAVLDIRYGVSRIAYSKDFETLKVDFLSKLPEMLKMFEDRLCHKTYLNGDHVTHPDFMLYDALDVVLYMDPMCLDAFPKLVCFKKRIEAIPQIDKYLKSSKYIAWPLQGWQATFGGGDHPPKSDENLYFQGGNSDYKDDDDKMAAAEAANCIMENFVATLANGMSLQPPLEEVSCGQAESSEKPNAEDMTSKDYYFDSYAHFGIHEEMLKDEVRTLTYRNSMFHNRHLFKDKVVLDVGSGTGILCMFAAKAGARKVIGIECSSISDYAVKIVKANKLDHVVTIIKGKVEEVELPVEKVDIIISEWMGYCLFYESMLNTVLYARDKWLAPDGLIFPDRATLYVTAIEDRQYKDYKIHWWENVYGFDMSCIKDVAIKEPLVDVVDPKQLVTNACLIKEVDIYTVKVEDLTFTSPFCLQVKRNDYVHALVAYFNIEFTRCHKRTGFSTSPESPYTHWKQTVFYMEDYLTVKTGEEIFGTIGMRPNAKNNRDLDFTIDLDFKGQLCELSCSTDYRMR
human PRMT8, sequence (Q9NR22 whole entry, the tested form may be a part): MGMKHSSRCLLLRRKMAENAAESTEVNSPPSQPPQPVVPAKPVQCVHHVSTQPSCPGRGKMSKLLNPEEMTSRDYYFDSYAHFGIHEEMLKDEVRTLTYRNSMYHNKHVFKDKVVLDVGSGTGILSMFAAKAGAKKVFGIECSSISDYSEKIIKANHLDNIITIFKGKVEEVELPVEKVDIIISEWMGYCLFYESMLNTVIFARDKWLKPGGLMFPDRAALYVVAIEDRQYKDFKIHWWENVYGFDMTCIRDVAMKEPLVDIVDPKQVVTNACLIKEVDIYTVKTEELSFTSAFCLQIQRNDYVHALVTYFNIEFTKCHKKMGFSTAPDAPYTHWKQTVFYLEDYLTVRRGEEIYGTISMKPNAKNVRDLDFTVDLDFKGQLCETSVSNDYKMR

Row | IC50 (human PRMT1) | IC50 (human PRMT8) | SMILES
1 | 3.19 nM | 35.8 nM | CN(CCN)Cc1c[nH]nc1-c1ccc(Oc2ccc(F)cc2)cc1 [Compound 225, N^1-((3-(4-(4-fluorophenoxy)phenyl)-1H-pyrazol-4-yl)methyl)-N^1-methylethane-1,2-diamine]
2 | 26.8 nM | 7250 nM | CN(CCN)Cc1c[nH]nc1-c1ccc(Oc2ccccc2)c(C(=O)N(C)C)c1 [Compound 226]
3 | 24.3 nM | 660 nM | CNC(=O)c1cc(-c2n[nH]cc2CN(C)CCN)ccc1Oc1ccccc1 [Compound 227]
4 | 5.55 nM | 316 nM | CNCCN(C)Cc1c[nH]nc1-c1ccc(OCCCOC)c(Cl)c1 [Compound 228]

From patent US9776972B2, “Pyrazole derivatives as arginine methyltransferase inhibitors and uses thereof” (priority 2013, dated 2017)
